Source: PubChem BioAssay (NCI)
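Test compounds were applied to cells in 96-well plates for 48 hours at 5 doses. TGI denotes the concentration required for complete inhibition of growth.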

How the values were obtained:
Experiment in all cases: DTP human tumour cell line panel, 48 h
CCRF-CEM leukemia = tested on: CCRF-CEM leukemia
SNB-75 CNS = tested on: SNB-75 CNS
A498 renal = tested on: A498 renal
SK-MEL-5 melanoma = tested on: SK-MEL-5 melanoma
NCI/ADR-RES ovarian = tested on: NCI/ADR-RES ovarian
DU-145 prostate = tested on: DU-145 prostate
NCI-H226 lung = tested on: NCI-H226 lung
SR leukemia = tested on: SR leukemia
SK-OV-3 ovarian = tested on: SK-OV-3 ovarian
RPMI-8226 leukemia = tested on: RPMI-8226 leukemia
MALME-3M melanoma = tested on: MALME-3M melanoma
K-562 leukemia = tested on: K-562 leukemia
OVCAR-3 ovarian = tested on: OVCAR-3 ovarian
NCI-H460 lung = tested on: NCI-H460 lung
ACHN renal = tested on: ACHN renal
SW-620 colon = tested on: SW-620 colon
OVCAR-8 ovarian = tested on: OVCAR-8 ovarian
SF-268 CNS = tested on: SF-268 CNS
MCF7 breast = tested on: MCF7 breast
RXF 393 renal = tested on: RXF 393 renal
A549 NSCLC = tested on: A549 NSCLC
KM12 colon = tested on: KM12 colon
OVCAR-4 ovarian = tested on: OVCAR-4 ovarian
MOLT-4 leukemia = tested on: MOLT-4 leukemia
BT-549 breast = tested on: BT-549 breast
T-47D breast = tested on: T-47D breast
786-0 renal = tested on: 786-0 renal
SK-MEL-28 melanoma = tested on: SK-MEL-28 melanoma
TK-10 renal = tested on: TK-10 renal
SF-295 CNS = tested on: SF-295 CNS
HCT-15 colon = tested on: HCT-15 colon
PC-3 prostate = tested on: PC-3 prostate
UACC-257 melanoma = tested on: UACC-257 melanoma
HOP-62 NSCLC = tested on: HOP-62 NSCLC
HT29 colon = tested on: HT29 colon
IGROV1 ovarian = tested on: IGROV1 ovarian
OVCAR-5 ovarian = tested on: OVCAR-5 ovarian
MDA-MB-231 breast = tested on: MDA-MB-231 breast
SN12C renal = tested on: SN12C renal
UO-31 renal = tested on: UO-31 renal
COLO 205 colon = tested on: COLO 205 colon
M14 melanoma = tested on: M14 melanoma
NCI-H23 lung = tested on: NCI-H23 lung
NCI-H522 lung = tested on: NCI-H522 lung
HS 578T breast = tested on: HS 578T breast
SNB-19 CNS = tested on: SNB-19 CNS
MDA-N = tested on: MDA-N
SF-539 CNS = tested on: SF-539 CNS
CAKI-1 renal = tested on: CAKI-1 renal
MDA-MB-435 = tested on: MDA-MB-435
EKVX NSCLC = tested on: EKVX NSCLC
HCC-2998 colon = tested on: HCC-2998 colon
HOP-92 NSCLC = tested on: HOP-92 NSCLC
U251 CNS = tested on: U251 CNS
HL-60(TB) leukemia = tested on: HL-60(TB) leukemia
HCT-116 colon = tested on: HCT-116 colon
LOX IMVI melanoma = tested on: LOX IMVI melanoma
SK-MEL-2 melanoma = tested on: SK-MEL-2 melanoma
UACC-62 melanoma = tested on: UACC-62 melanoma

SMILES: COc1cc([C@@H]2C3C(=O)c4ccccc4C3[C@@H](c3cc(OC)c(OC)c(OC)c3)C23Cc2ccccc2C3=O)cc(OC)c1OC (stereo partly drawn)
- TGI (CCRF-CEM leukemia): > 100 µM
- TGI (SNB-75 CNS): > 100 µM
- TGI (A498 renal): > 100 µM
- TGI (SK-MEL-5 melanoma): > 100 µM
- TGI (NCI/ADR-RES ovarian): > 100 µM
- TGI (DU-145 prostate): > 100 µM
- TGI (NCI-H226 lung): > 100 µM
- TGI (SR leukemia): > 100 µM
- TGI (SK-OV-3 ovarian): > 100 µM
- TGI (RPMI-8226 leukemia): > 100 µM
- TGI (MALME-3M melanoma): > 100 µM
- TGI (K-562 leukemia): > 100 µM
- TGI (OVCAR-3 ovarian): > 100 µM
- TGI (NCI-H460 lung): > 100 µM
- TGI (ACHN renal): > 100 µM
- TGI (SW-620 colon): > 100 µM
- TGI (OVCAR-8 ovarian): > 100 µM
- TGI (SF-268 CNS): > 100 µM
- TGI (MCF7 breast): > 100 µM
- TGI (RXF 393 renal): > 100 µM
- TGI (A549 NSCLC): > 100 µM
- TGI (KM12 colon): > 100 µM
- TGI (OVCAR-4 ovarian): > 100 µM
- TGI (MOLT-4 leukemia): > 100 µM
- TGI (BT-549 breast): > 100 µM
- TGI (T-47D breast): > 100 µM
- TGI (786-0 renal): > 100 µM
- TGI (SK-MEL-28 melanoma): > 100 µM
- TGI (TK-10 renal): > 100 µM
- TGI (SF-295 CNS): > 100 µM
- TGI (HCT-15 colon): > 100 µM
- TGI (PC-3 prostate): > 100 µM
- TGI (UACC-257 melanoma): > 100 µM
- TGI (HOP-62 NSCLC): > 100 µM
- TGI (HT29 colon): > 100 µM
- TGI (IGROV1 ovarian): > 100 µM
- TGI (OVCAR-5 ovarian): > 100 µM
- TGI (MDA-MB-231 breast): > 100 µM
- TGI (SN12C renal): > 100 µM
- TGI (UO-31 renal): > 100 µM
- TGI (COLO 205 colon): > 100 µM
- TGI (M14 melanoma): > 100 µM
- TGI (NCI-H23 lung): > 100 µM
- TGI (NCI-H522 lung): > 100 µM
- TGI (HS 578T breast): > 100 µM
- TGI (SNB-19 CNS): > 100 µM
- TGI (MDA-N): > 100 µM
- TGI (SF-539 CNS): > 100 µM
- TGI (CAKI-1 renal): 7.85 µM
- TGI (MDA-MB-435): > 100 µM
- TGI (EKVX NSCLC): > 100 µM
- TGI (HCC-2998 colon): > 100 µM
- TGI (HOP-92 NSCLC): > 100 µM
- TGI (U251 CNS): > 100 µM
- TGI (HL-60(TB) leukemia): > 100 µM
- TGI (HCT-116 colon): > 100 µM
- TGI (LOX IMVI melanoma): > 100 µM

SMILES: CN(C(=O)CCC(=O)O)c1ccccc1C(=O)O
- TGI (CCRF-CEM leukemia): > 100 µM
- TGI (SNB-75 CNS): > 100 µM
- TGI (A498 renal): > 100 µM
- TGI (SK-MEL-5 melanoma): > 100 µM
- TGI (NCI/ADR-RES ovarian): > 100 µM
- TGI (DU-145 prostate): > 100 µM
- TGI (SK-MEL-2 melanoma): > 100 µM
- TGI (NCI-H226 lung): > 100 µM
- TGI (SR leukemia): > 100 µM
- TGI (SK-OV-3 ovarian): > 100 µM
- TGI (RPMI-8226 leukemia): > 100 µM
- TGI (MALME-3M melanoma): > 100 µM
- TGI (K-562 leukemia): > 100 µM
- TGI (OVCAR-3 ovarian): > 100 µM
- TGI (NCI-H460 lung): > 100 µM
- TGI (ACHN renal): > 100 µM
- TGI (SW-620 colon): > 100 µM
- TGI (OVCAR-8 ovarian): > 100 µM
- TGI (SF-268 CNS): > 100 µM
- TGI (MCF7 breast): > 100 µM
- TGI (RXF 393 renal): > 100 µM
- TGI (A549 NSCLC): > 100 µM
- TGI (KM12 colon): > 100 µM
- TGI (OVCAR-4 ovarian): > 100 µM
- TGI (MOLT-4 leukemia): > 100 µM
- TGI (BT-549 breast): > 100 µM
- TGI (T-47D breast): > 100 µM
- TGI (786-0 renal): > 100 µM
- TGI (SK-MEL-28 melanoma): > 100 µM
- TGI (TK-10 renal): > 100 µM
- TGI (SF-295 CNS): > 100 µM
- TGI (HCT-15 colon): > 100 µM
- TGI (PC-3 prostate): > 100 µM
- TGI (UACC-257 melanoma): > 100 µM
- TGI (UACC-62 melanoma): > 100 µM
- TGI (HT29 colon): > 100 µM
- TGI (IGROV1 ovarian): > 100 µM
- TGI (OVCAR-5 ovarian): > 100 µM
- TGI (MDA-MB-231 breast): > 100 µM
- TGI (UO-31 renal): > 100 µM
- TGI (COLO 205 colon): > 100 µM
- TGI (M14 melanoma): > 100 µM
- TGI (NCI-H23 lung): > 100 µM
- TGI (HS 578T breast): > 100 µM
- TGI (SNB-19 CNS): > 100 µM
- TGI (MDA-N): > 100 µM
- TGI (SF-539 CNS): > 100 µM
- TGI (CAKI-1 renal): > 100 µM
- TGI (MDA-MB-435): > 100 µM
- TGI (EKVX NSCLC): > 100 µM
- TGI (HCC-2998 colon): > 100 µM
- TGI (HOP-92 NSCLC): > 100 µM
- TGI (U251 CNS): > 100 µM
- TGI (HL-60(TB) leukemia): > 100 µM
- TGI (HCT-116 colon): > 100 µM
- TGI (LOX IMVI melanoma): > 100 µM
